{
  "source": "patent EP0799188B1",
  "about": "“AMIDES OF MONO AND DICARBOXYLIC ACIDS WITH GLYCOSAMINES, SELECTIVELY ACTIVE ON THE CANNABINOID PERIPHERAL RECEPTOR” (LIFEGROUP S.p.A., priority 1994, dated 1996)",
  "key": {"[1]": {"target": "T1, CB2 receptor (Rattus norvegicus, UniProt Q9QZN9)", "T1 construct": "30 µg membrane proteins prepared in item a); endogenous in cells; host or cells: RBL-2H3 cells (plasma membrane preparation)", "T1 sequence (Q9QZN9 1-360)": "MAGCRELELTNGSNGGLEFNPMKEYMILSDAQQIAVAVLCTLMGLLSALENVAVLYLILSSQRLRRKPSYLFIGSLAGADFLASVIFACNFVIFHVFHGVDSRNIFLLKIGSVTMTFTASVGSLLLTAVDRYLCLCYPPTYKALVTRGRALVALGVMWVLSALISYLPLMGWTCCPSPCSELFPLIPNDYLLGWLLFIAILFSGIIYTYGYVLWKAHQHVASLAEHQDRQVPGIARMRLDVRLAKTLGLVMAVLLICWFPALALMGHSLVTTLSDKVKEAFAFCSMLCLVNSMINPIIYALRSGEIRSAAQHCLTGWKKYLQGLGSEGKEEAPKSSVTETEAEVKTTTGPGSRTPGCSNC", "assay": "3H-WIN 55,212-2 binding displacement on RBL-2H3 cell membranes", "conditions": "for IC50: RBL-2H3 cell membranes, 1% DMSO, means ± SEM"}, "[2]": {"system": "RBL-2H3 cells", "assay": "3H-serotonin release induced by ADNP/DNP.HSA immunogenic stimulation", "type": "cell-based, rat", "conditions": "for effect on serotonin release (RBL cells immunogenic activation): statement in words on Table 3; for inhibition at 10 µM: RBL-2H3, 10µM"}, "[3]": {"assay": "solubility in organic solvents", "type": "physicochemical", "conditions": "organic solvent or mixture, read-out: solubility in org. sol."}, "[4]": {"assay": "water solubility"}, "[5]": {"conditions": "Rattus norvegicus, RBL-2H3, DMSO 1%, 100µM"}, "[6]": {"conditions": "Rattus norvegicus, RBL-2H3, concentration inhibiting by 50% the net release of 3H serotonin, 0.2% DMSO, 15 minutes release period, means ± SEM, read-out: EC50"}, "[7]": {"conditions": "Rattus norvegicus, RBL-2H3, DMSO 0.2%, 100µM"}, "[8]": {"conditions": "Rattus norvegicus, RBL-2H3, concentration inhibiting by 50% the net release of 3H serotonin, 1% DMSO, 15 minutes release period, means ± SEM, read-out: EC50"}, "[9]": {"conditions": "competitor 10 µM, amides in 0.1% DMSO, Anandamide and Nabilone in 0.1% ethanol"}, "[10]": {"conditions": "Rattus norvegicus, RBL-2H3, DMSO 0.2%"}, "[11]": {"conditions": "Rattus norvegicus, RBL-2H3, inhibition of 3H-serotonin release, +anandamide (12.5 µM), read-out: ED50 (the source's name)"}, "[12]": {"conditions": "Rattus norvegicus, RBL-2H3, inhibition of 3H-serotonin release, -anandamide, read-out: ED50 (the source's name)"}},
  "note": "“And” between values parts separate entries of the source, which are not always exact repeats. Equal entries are not always repeated. Where two headings read alike, the source gives them in different places.",
  "data": [
    {"molecule": "C=C(C)[C@@H]1CCC(C)=C[C@H]1c1c(O)cc(CCCCC)cc1O", "note": "[Cannabidiol, reference compound]", "values": [
      {"measurement": "IC50", "setting": "[1]; IC50 (nM)", "value": "> 1000", "unit": "nM"}
    ]},
    {"molecule": "NCCO", "note": "[ethanolamine, reference compound]", "values": [
      {"measurement": "inhibition at 12.5 µM", "setting": "[2]; Rattus norvegicus, RBL-2H3, 12.5µM, -WIN, read-out: 3H-serotonin net release inhibition (%)", "value": 6, "unit": "%"}
    ]},
    {"molecule": "CCCCCCCCCCCC(=O)N[C@@H](CO)C(=O)OC", "note": "[Example 5, N-lauroyl-L-serine methylester]", "values": [
      {"measurement": "solubility", "setting": "[3]; in DMSO", "value": "> 10000", "unit": "µg/mL"},
      {"measurement": "solubility", "setting": "[3]; in ethanol", "value": "> 10000", "unit": "µg/mL"},
      {"measurement": "water solubility", "setting": "[4]", "value": "slightly soluble"},
      {"measurement": "inhibition at 100 µM", "setting": "[2]; [5]", "value": 61, "unit": "%"},
      {"measurement": "EC50", "setting": "[2]; [6]", "value": "104 ± 59", "unit": "µM"}
    ]},
    {"molecule": "CCCCCc1cc(O)c2c(c1)OC(C)(C)C1CC=C(C)CC21", "note": "(stereo not drawn) [Δ 8-THC, Δ8-tetrahydrocannabinol, reference compound]", "values": [
      {"measurement": "inhibition at 25 µM", "setting": "[2]; Rattus norvegicus, RBL-2H3, read-out: 3H-serotonin net release inhibition (%)", "value": 100, "unit": "%"},
      {"measurement": "EC50", "setting": "[2]; Rattus norvegicus, RBL-2H3, read-out: ED50 (µM)", "value": 5, "unit": "µM"},
      {"measurement": "EC50", "setting": "[2]; Rattus norvegicus, RBL-2H3, read-out: ED50 (µm)", "value": 5, "unit": "µM"},
      {"measurement": "effect on serotonin release (RBL cells immunogenic activation)", "setting": "[2]", "value": "able to inhibit, in a concentration-dependent way"}
    ]},
    {"molecule": "CCCCCCCCCCCCCCCC(=O)NCCO", "note": "[N-(2-hydroxyethyl)-hexadecanamide, reference compound]", "values": [
      {"measurement": "3H-serotonin net release (%)", "setting": "[2]; 100µM, 1% DMSO and 1% ethanol", "value": 0, "unit": "%"},
      {"measurement": "EC50", "setting": "[2]; Rattus norvegicus, RBL-2H3, inhibition of serotonin release, 1% DMSO and 1% ethanol, read-out: ED50 (µm)", "value": 2.6, "unit": "µM"}
    ]},
    {"molecule": "O=C(CCCCCCCC(=O)NC(CO)C(=O)O)NC(CO)C(=O)O", "note": "(stereo not drawn) [Example 12, N,N' -bis-(1-carboxy-2-hydroxyethyl)-nonandiamide]", "values": [
      {"measurement": "solubility", "setting": "[3]; in DMSO", "value": "> 10000", "unit": "µg/mL"},
      {"measurement": "solubility", "setting": "[3]; in ethanol", "value": "> 10000", "unit": "µg/mL"},
      {"measurement": "water solubility", "setting": "[4]", "value": "slightly soluble"},
      {"measurement": "solubility", "setting": "[4]; water", "value": "> 10000", "unit": "µg/mL"}
    ]},
    {"molecule": "CCCCCCCCCCCC(=O)NCC(=O)O", "note": "[Example 8, N-lauroyl-glycine]", "values": [
      {"measurement": "solubility", "setting": "[3]; in DMSO", "value": "> 10000", "unit": "µg/mL"},
      {"measurement": "solubility", "setting": "[3]; in ethanol", "value": "> 10000", "unit": "µg/mL"},
      {"measurement": "water solubility", "setting": "[4]", "value": "slightly soluble"},
      {"measurement": "solubility", "setting": "[4]; phosphate buffer, pH 7.4, aqueous buffer", "value": "> 10000", "unit": "µg/mL"},
      {"measurement": "inhibition at 100 µM", "setting": "[2]; [7]", "value": 93, "unit": "%"},
      {"measurement": "inhibition at 100 µM", "setting": "[2]; [5]", "value": 100, "unit": "%"},
      {"measurement": "EC50", "setting": "[2]; [6]", "value": "10 ± 1.5", "unit": "µM"},
      {"measurement": "EC50", "setting": "[2]; [8]", "value": "7 ± 5", "unit": "µM"}
    ]},
    {"molecule": "CCCCCCCCCCCCCCCC(=O)N[C@@H](CO)C(=O)O", "note": "[Example 1, N-palmitoyl-L-serine]", "values": [
      {"measurement": "solubility", "setting": "[3]; in DMSO", "value": "> 10000", "unit": "µg/mL"},
      {"measurement": "solubility", "setting": "[3]; in ethanol", "value": "> 10000", "unit": "µg/mL"},
      {"measurement": "water solubility", "setting": "[4]", "value": "slightly soluble"},
      {"measurement": "3H-serotonin net release (%)", "setting": "[2]; 100µM, 0.1% DMSO and 0.1% ethanol", "value": 0, "unit": "%"},
      {"measurement": "effect on serotonin release (RBL cells immunogenic activation)", "setting": "[2]", "value": "can inhibit the effects induced by mast cell activation"},
      {"measurement": "IC50", "setting": "[1]; read-out: IC50", "value": "0.04 nM and 0.05 nM"},
      {"measurement": "Displacement (%)", "setting": "[1]; [9]", "value": 100, "unit": "%"}
    ]},
    {"molecule": "CCCCCCCCCCCCCCCC(=O)N[C@@H](CS)C(=O)O", "note": "[Example 6, N-palmitoyl-L-cysteine]", "values": [
      {"measurement": "solubility", "setting": "[3]; in DMSO", "value": "> 10000", "unit": "µg/mL"},
      {"measurement": "water solubility", "setting": "[4]", "value": "slightly soluble"},
      {"measurement": "inhibition at 60 µM", "setting": "[2]; [10]", "value": 50, "unit": "%"},
      {"measurement": "inhibition at 100 µM", "setting": "[2]; [5]", "value": 91, "unit": "%"},
      {"measurement": "EC50", "setting": "[2]; [8]", "value": "29 ± 12", "unit": "µM"}
    ]},
    {"molecule": "CCCCCCCCCCCCCCCC(=O)N[C@H]1C(O)O[C@H](CO)[C@@H](O)[C@@H]1O", "note": "(stereo partly drawn) [Example 14, N-palmitoyl-D-glucosamine]", "values": [
      {"measurement": "solubility", "setting": "[3]; in DMSO", "value": "> 1000", "unit": "µg/mL"},
      {"measurement": "water solubility", "setting": "[4]", "value": "slightly soluble"},
      {"measurement": "inhibition at 20 µM", "setting": "[2]; Rattus norvegicus, RBL-2H3, DMSO 0.2%, 20µM", "value": 76, "unit": "%"},
      {"measurement": "inhibition at 100 µM", "setting": "[2]; [5]", "value": 91, "unit": "%"},
      {"measurement": "EC50", "setting": "[2]; [6]", "value": "1.28 ± 0.38", "unit": "µM"},
      {"measurement": "EC50", "setting": "[2]; [11]", "value": 3.3, "unit": "µM"},
      {"measurement": "EC50", "setting": "[2]; [12]", "value": 0.51, "unit": "µM"}
    ]},
    {"molecule": "CCCCCCCCCCCC(=O)N[C@@H](CO)C(=O)O", "note": "[Example 2, N-lauroyl-L-serine]", "values": [
      {"measurement": "solubility", "setting": "[3]; in DMSO", "value": "> 10000", "unit": "µg/mL"},
      {"measurement": "solubility", "setting": "[3]; in ethanol", "value": "> 10000", "unit": "µg/mL"},
      {"measurement": "water solubility", "setting": "[4]", "value": "slightly soluble"},
      {"measurement": "solubility", "setting": "[4]; water", "value": "> 10000", "unit": "µg/mL"},
      {"measurement": "inhibition at 100 µM", "setting": "[2]; [7]", "value": 79, "unit": "%"},
      {"measurement": "inhibition at 100 µM", "setting": "[2]; [5]", "value": 61, "unit": "%"}
    ]},
    {"molecule": "CCCCCCCCCCCCCCCC(=O)NCC(=O)O", "note": "[Example 7, N-palmitoyl-glycine]", "values": [
      {"measurement": "solubility", "setting": "[3]; in DMSO", "value": "> 10000", "unit": "µg/mL"},
      {"measurement": "water solubility", "setting": "[4]", "value": "slightly soluble"},
      {"measurement": "3H-serotonin net release (%)", "setting": "[2]; 10µM, 0.1% DMSO and 0.1% ethanol", "value": 27, "unit": "%"},
      {"measurement": "inhibition at 10 µM", "setting": "[2]; Rattus norvegicus, + anandamide (12.5 µM), read-out: 3H-serotonin net release inhibition (%)", "value": 24, "unit": "%"},
      {"measurement": "inhibition at 10 µM", "setting": "[2]; Rattus norvegicus, -anandamide, read-out: 3H-serotonin net release inhibition (%)", "value": 73, "unit": "%"},
      {"measurement": "inhibition at 60 µM", "setting": "[2]; [10]", "value": 85, "unit": "%"},
      {"measurement": "inhibition at 100 µM", "setting": "[2]; [5]", "value": 100, "unit": "%"},
      {"measurement": "EC50", "setting": "[2]; [11]", "value": "> 100", "unit": "µM"},
      {"measurement": "EC50", "setting": "[2]; [12]", "value": 4.8, "unit": "µM"},
      {"measurement": "EC50", "setting": "[2]; Rattus norvegicus, RBL-2H3, inhibition of serotonin release, 0.1% DMSO and 0.1% ethanol, read-out: ED50 (µm)", "value": 4.8, "unit": "µM"},
      {"measurement": "effect on serotonin release (RBL cells immunogenic activation)", "setting": "[2]", "value": "can inhibit the effects induced by mast cell activation"},
      {"measurement": "Displacement (%)", "setting": "[1]; [9]", "value": 79, "unit": "%"},
      {"measurement": "Specific binding", "setting": "[1]; [9]", "value": 297}
    ]}
  ]
}
